Measurements reported in patent US20100056600A1, “11BETA-HSD1 ACTIVE COMPOUNDS” (priority 2007, published 2010).

Target: T1, h-11βHSD1 (Homo sapiens, UniProt P28845)
T1 construct: made in house
Experiment: 11βHSD1 enzyme assay (SPA, 3H-cortisone to 3H-cortisol)
Format: biochemical
Conditions: extract of yeast transformed with h-11βHSD1; 120 nM 3H-cortisone, 4 mM β-NADPH, 60 min at 30° C.
Protocol: ^3H-cortisone and anti-rabbit Ig coated scintillation proximity assay (SPA) beads were purchased from Amersham Pharmacia Biotech, β-NADPH was from Sigma and rabbit anti-cortisol antibodies were from Fitzgerald. An extract of yeast transformed with h-11βHSD1 (Hutt et al., FEBS Lett, 441, 25 (1998)) was used as the source of enzyme. The test compounds were dissolved in DMSO (10 mM). All dilutions were performed in a buffer containing 50 mM TRIS-HCl (Sigma Chemical Co), 4 mM EDTA (Sigma Chemical Co), 0.1% BSA (Sigma Chemical Co), 0.01% Tween-20 (Sigma Chemical Co) and 0.005% bacitracin (Novo Nordisk A/S), pH=7.4. Optiplate 96 wells plates were supplied by Packard. The amount of ^3H-cortisol bound to the SPA beads was measured on TopCount NXT, Packard.
h-11βHSD1, 120 nM ^3H-cortisone, 4 mM β-NADPH, antibody (1:200), serial dilutions of test compound and SPA particles (2 mg/well) were added to the wells. The reaction was initiated by mixing the different components and was allowed to proceed under shaking for 60 min at 30° C. The reaction was stopped be the addition of 10 fold excess of a stopping buffer containing 500 μM carbenoxolone and 1 μM cortisone. Data was analysed using GraphPad Prism software.

T1 sequence (P28845 whole entry): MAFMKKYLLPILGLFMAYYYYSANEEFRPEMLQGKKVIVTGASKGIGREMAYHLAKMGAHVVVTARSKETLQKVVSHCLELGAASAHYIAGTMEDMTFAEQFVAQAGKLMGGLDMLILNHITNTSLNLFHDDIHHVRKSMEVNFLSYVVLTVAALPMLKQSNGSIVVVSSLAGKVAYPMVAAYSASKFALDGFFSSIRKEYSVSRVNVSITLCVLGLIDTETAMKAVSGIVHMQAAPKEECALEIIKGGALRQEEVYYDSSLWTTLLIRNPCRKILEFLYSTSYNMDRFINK

Compound | IC50 [µM]
O=C(c1ccc2c(c1)-c1ccccc1C2)N1C2CCC1CC(O)C2 (single isomer, unassigned) [Example 1, (9H-Fluoren-3-yl)-(cis 3-hydroxy-8-aza-bicyclo[3.2.1]oct-8-yl)-methanone] | 0.008
O=C(c1ccc2c(c1)-c1ccccc1C2)N1C2CCC1CC(O)C2 (single isomer, unassigned) [Example 2, (9H-Fluoren-3-yl)-(trans 3-hydroxy-8-aza-bicyclo[3.2.1]oct-8-yl)-methanone] | 0.246
Cn1c2ccccc2c2cc(C(=O)N3C4CCC3CC(O)C4)ccc21 (centres unmarked) [Example 3, (3-Hydroxy-8-aza-bicyclo[3.2.1]oct-8-yl)-(9-methyl-9H-carbazol-3-yl)-methanone] | 0.006
O=C(c1ccc2[nH]c3ccccc3c2c1)N1C2CCC1CC(O)C2 (centres unmarked) [Example 4, (9H-Carbazol-3-yl)-(3-hydroxy-8-aza-bicyclo[3.2.1]oct-8-yl)-methanone] | 0.03
Cn1c2ccccc2c2cc(C(=O)N3CC4CC3CC4O)ccc21 (centres unmarked) [Example 5, (5-Hydroxy-2-aza-bicyclo[2.2.1]hept-2-yl)-(9-methyl-9H-carbazol-3-yl)-methanone] | 0.064
Cn1c2ccccc2c2cc(C(=O)N3CC4CC(O)CC3C4)ccc21 (centres unmarked) [Example 7, (3-Hydroxy-6-aza-bicyclo[3.2.1]oct-6-yl)-(9-methyl-9H-carbazol-3-yl)-methanone] | 0.36
Cn1c2ccccc2c2cc(C(=O)N3CC4CC(O)C3C4)ccc21 (centres unmarked) [Example 9, (6-Hydroxy-2-aza-bicyclo[2.2.1]hept-2-yl)-(9-methyl-9H-carbazol-3-yl)-methanone] | 0.274
O=C(c1ccc2[nH]c3ccccc3c2c1)N1CC2CC(O)C1C2 (centres unmarked) [Example 10, (9H-Carbazol-3-yl)-(6-hydroxy-2-aza-bicyclo[2.2.1]hept-2-yl)-methanone] | 1.03
O=C(NC1C2CC3CC1CC(O)(C3)C2)c1ccc2[nH]c3ccccc3c2c1 (centres unmarked) [Example 11, 9H-Carbazole-3-carboxylic acid (5-hydroxy-adamantan-2-yl)-amide] | 0.029
CN(C(=O)c1ccc2c(c1)c1ccccc1n2C)C1C2CC3CC1CC(O)(C3)C2 (centres unmarked) [Example 12, 9-Methyl-9H-carbazole-3-carboxylic acid (5-hydroxy-adamantan-2-yl)-methyl-amide] | 0.041
CN(C(=O)c1ccc2[nH]c3ccccc3c2c1)C1C2CC3CC1CC(O)(C3)C2 (centres unmarked) [Example 13, 9H-Carbazole-3-carboxylic acid (5-hydroxy-adamantan-2-yl)-methyl-amide] | 0.076
